Biological target: T1, MASTL kinase (Homo sapiens, UniProt Q96GX5)
T1 construct: GST; purchased Thermo Fisher Scientific
T1 sequence (Q96GX5 1-879): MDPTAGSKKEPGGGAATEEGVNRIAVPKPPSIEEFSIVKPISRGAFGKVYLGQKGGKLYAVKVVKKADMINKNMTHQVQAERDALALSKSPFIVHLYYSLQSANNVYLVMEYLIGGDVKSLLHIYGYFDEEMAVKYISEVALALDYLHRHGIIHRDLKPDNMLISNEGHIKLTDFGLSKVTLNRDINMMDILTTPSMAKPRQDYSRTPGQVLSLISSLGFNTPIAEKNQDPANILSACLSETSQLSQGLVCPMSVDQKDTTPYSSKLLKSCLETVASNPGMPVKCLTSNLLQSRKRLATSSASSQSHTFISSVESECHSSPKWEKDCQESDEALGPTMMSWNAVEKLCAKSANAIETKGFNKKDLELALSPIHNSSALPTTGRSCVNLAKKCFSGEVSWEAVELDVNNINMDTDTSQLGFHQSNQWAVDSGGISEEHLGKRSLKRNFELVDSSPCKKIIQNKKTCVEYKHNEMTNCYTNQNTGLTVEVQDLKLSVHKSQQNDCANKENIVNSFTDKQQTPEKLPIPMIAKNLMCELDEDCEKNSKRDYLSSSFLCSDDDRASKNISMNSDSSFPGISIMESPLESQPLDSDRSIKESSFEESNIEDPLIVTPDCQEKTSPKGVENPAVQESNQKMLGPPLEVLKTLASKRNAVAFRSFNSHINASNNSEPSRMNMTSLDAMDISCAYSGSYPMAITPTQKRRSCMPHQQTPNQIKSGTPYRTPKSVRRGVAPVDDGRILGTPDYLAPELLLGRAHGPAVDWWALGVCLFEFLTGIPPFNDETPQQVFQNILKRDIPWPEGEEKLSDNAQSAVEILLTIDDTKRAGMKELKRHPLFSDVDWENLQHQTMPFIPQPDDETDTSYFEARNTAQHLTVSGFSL
Test: In vitro MASTL kinase analysis, immunoblotting for phosphorylated ENSA
Type: biochemical
Conditions: western blot, 50 μM or more, FIG. 3
Method: The MASTL kinase analysis in vitro was performed by reacting recombinant GST-tagged-MASTL (Thermo Fisher Scientific, Waltham, MA, USA) and his-tagged-ENSA (Sino Biological Inc., Beijing, China) proteins or immunoprecipitated proteins derived from MCF7 cells with the MASTL antibody (AP7147d; Abgent, CA, USA) in a kinase buffer consisting of 100 mM Tris-HCl (pH 7.5), 30 mM MgCl2, 2 mM DTT, 1 mM EDTA and 10 μM ultrapure ATP. The reaction proceeded, and then stopped by treating with SDS-loading buffer. In this experiment, the multi-AGC kinase inhibitor AT13148 was used as a positive control. The reaction was analyzed by performing immunoblotting for phosphorylated ENSA, and the results of the analysis were shown in FIG. 1B, and the results of the experiments confirming the cell survival and the kinase inhibitor activity were shown in FIG. 1C.
A protein kinase analysis was performed using the ADP-Glo™ kinase assay kit according to the standard protocol provided by Promega. […] Then, the reacted product was transferred to a 384-well white plate, and […] was read using a SpectraMax i3× Multi-Mode Microplate Reader (Molecular Devices), and GKI-1, N-(4-chlorophenyl)-3-(1H-pyrazol-4-yl)aniline and AT13148 were used as positive controls. The effect of inhibiting kinase activity of GKI-1 and MKI-1 and its IC50 confirmed through the reading result were shown in FIG. 2. […]

## O=C(Nc1nc2ccccc2[nH]1)c1cccc(-n2cccc2)c1 [MKI-1, N-1H-benzimidazol-2-yl-3-(1H-pyrrol-1-yl) benzamide]
  ENSA phosphorylation (p-ENSA) in vitro: p-ENSA did not appear

From patent US12029730B2, “Pharmaceutical composition for preventing or treating cancer, containing N-1H-benzimidazol-2-yl-3-(1H-pyrrole-1-yl)benzamide as active ingredient” (KOREA INSTITUTE OF RADIOLOGICAL & MEDICAL SCIENCES, priority 2018, dated 2024)
